From patent US8101760B2, “Glucocorticoid receptor modulator and methods of use” (Eli Lilly and Company, priority 2007, dated 2012)

Experiments:
[1] = test system: human hepatocyte cultures; assay: Metabolism in human hepatocyte cultures in vitro; assay type: in vitro ADME
[2] = target: T1, human glucocorticoid receptor (GR) (Homo sapiens, UniProt P04150); assay: Nuclear hormone receptor functional modulation assay (GRE-luciferase, HEK293), GR; assay type: cell-based
T1 construct: expressed in transfected cells; host or cells: HEK293, transient transfection (Fugene), CMV promoter plasmid
T1 sequence (P04150 1-777): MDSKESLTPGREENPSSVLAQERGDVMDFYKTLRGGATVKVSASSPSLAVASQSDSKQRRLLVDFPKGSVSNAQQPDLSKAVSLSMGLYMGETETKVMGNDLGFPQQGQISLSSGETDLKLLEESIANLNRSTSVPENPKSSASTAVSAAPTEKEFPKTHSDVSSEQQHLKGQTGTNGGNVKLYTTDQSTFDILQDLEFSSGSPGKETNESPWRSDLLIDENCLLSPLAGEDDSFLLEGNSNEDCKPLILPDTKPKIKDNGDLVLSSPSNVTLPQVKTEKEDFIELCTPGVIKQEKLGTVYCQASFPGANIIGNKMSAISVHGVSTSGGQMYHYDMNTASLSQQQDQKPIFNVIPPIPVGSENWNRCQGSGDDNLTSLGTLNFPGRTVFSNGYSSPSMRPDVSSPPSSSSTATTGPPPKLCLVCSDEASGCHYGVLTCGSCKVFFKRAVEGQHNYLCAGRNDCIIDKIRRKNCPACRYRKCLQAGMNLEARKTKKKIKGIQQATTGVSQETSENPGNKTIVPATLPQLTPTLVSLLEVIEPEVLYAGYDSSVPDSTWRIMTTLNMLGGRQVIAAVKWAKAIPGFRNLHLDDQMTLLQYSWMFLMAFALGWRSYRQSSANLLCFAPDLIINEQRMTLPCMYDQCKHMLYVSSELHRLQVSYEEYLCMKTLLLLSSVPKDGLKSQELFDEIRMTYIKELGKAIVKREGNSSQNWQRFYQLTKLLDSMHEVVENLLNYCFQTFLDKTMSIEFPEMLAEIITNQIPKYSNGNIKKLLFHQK
Description: (§1) The solvents, reagents, and ligands employed in the functional assay are readily available from commercial sources, or can be prepared by one of ordinary skill in the art.
(§2) Human embryonic kidney HEK293 cells are transfected with steroid hormone receptor and reporter gene plasmids using Fugene™ (Roche Diganostics) transfection reagent. Briefly, the reporter plasmid containing two copies of probasin ARE (androgen response element 5′GGTTCTTGGAGTACT3′ (SEQ ID NO:1)) and TK(thymidine kinase) promoter upstream of the luciferase reporter cDNA, is transfected into HEK293 cells with a plasmid constitutively expressing human androgen receptor (AR) using viral CMV(cytomegalovirus) promoter. The reporter plasmid containing two copies of GRE (glucocorticoid response element 5′TGTACAGGATGTTCT′3 (SEQ ID NO:2)) and TK promoter upstream of the luciferase reporter cDNA is transfected with a plasmid constitutively expressing either human glucocorticoid receptor (GR), human mineralocorticoid receptor (MR), or human progesterone receptor (PR) using viral CMV promoter. Cells are transfected in T150 cm flasks in DMEM media with 5% charcoal-stripped Fetal Bovine Serum (FBS). […] In the antagonist mode for the assays, low concentrations of agonist for each respective receptor are added to the media (0.25 nM dexamethasone for GR, 0.3 nM of methyltrienolone for AR, 0.05 nM of promegestone for PR and 0.05 nM aldosterone for MR), and the ability of test compound to antagonize the agonist response is determined. After 24 hours of incubation with test compounds, cells are lysed and luciferase activity is determined using standard techniques.
(§3) Data are fitted to a four parameter-fit logistic curve fit to determine EC50 values. […] IC50 values may be determined similarly using antagonist mode assay data. Percent inhibitions may also be determined relative to the response in the presence of agonist alone, as described above.

[3] = target: T2, human mineralocorticoid receptor (MR) (Homo sapiens, UniProt P08235); assay: Nuclear hormone receptor functional modulation assay (GRE-luciferase, HEK293), MR; assay type: cell-based
T2 construct: expressed in transfected cells; host or cells: HEK293, transient transfection (Fugene), CMV promoter plasmid
T2 sequence (P08235 1-984): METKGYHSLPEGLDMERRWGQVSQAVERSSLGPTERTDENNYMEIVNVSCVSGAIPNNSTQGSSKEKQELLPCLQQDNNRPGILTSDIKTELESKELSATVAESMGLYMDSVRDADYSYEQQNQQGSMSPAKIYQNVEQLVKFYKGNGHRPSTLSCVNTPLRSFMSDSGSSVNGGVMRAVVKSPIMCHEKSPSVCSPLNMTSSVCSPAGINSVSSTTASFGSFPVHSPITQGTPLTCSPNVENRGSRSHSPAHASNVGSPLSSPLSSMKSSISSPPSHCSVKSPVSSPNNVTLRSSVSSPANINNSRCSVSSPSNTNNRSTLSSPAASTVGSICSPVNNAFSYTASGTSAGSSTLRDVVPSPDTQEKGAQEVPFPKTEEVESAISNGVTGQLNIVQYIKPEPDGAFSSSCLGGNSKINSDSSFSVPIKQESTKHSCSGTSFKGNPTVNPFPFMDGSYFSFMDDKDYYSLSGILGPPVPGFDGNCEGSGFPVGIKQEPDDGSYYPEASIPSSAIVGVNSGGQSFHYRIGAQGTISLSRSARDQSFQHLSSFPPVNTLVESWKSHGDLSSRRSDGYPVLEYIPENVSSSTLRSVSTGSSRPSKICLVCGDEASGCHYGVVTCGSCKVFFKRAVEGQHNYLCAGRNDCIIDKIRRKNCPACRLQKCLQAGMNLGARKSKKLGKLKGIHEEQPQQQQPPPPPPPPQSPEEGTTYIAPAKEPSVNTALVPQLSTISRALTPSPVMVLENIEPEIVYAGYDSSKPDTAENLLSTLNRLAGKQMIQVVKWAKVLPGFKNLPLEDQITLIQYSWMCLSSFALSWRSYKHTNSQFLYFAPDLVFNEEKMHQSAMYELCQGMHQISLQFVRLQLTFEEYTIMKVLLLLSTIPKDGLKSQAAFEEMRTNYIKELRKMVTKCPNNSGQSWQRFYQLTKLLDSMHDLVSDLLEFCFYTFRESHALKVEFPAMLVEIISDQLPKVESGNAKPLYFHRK
Description: as §1, §2, §3

metabolism when incubated with human hepatocyte cultures [1]: only minor metabolism | Emax ([2]; HEK293, partial agonist activity, read-out: maximal efficacy in inducing GR/GRE-mediated gene transcription (transactivation)): < 50% | EC50 ([2]; agonist mode, activating transcription, mean of 3): 1.9 nM | GR % Eff. ([2]; percent efficacy at 10 μM relative to 100 nM dexamethasone, mean of 3): 45.7% | EC50 ([3]; agonist mode, activating transcription): > 10 µM | modulation of gene expression mediated by MR ([3]; functional modulation, in words): only limited activity | MR % Eff. ([3]; percent efficacy at 10 μM relative to 30 nM aldosterone, mean of 3): 8.5%
SMILES: CC/C(=C1\c2ccc(Cl)cc2OCc2ncccc21)c1cccc(NS(C)(=O)=O)c1 [Compound (I), (E)-N-{3-[1-(8-Chloro-11H-10-oxa-1-aza-dibenzo[a,d]cyclohepten-5-ylidene)-propyl]-phenyl}-methanesulfonamide]
